Experimental data as given in ChEMBL document CHEMBL1201862, “PubChem BioAssay data set” (2004).
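Five concentrations, 48 hours, 96-well plates. Here, GI50 denotes the concentration required for 50% inhibition of growth.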 Active and inactive are the calls of the source. Cut-off read from the data, not from the text of the source: active = GI50 up to about 1.1 µM and inactive = higher.

Experiments:
Test in all cases: inhibition of tumour cell growth, NCI panel, 48 h
A498 = system: A498
MDA-MB-435 = system: MDA-MB-435
HCC 2998 = system: HCC 2998
KM12 = system: KM12
Hs-578T = system: Hs-578T
NCI-H226 = system: NCI-H226
COLO 205 = system: COLO 205
SF-539 = system: SF-539
NCI-H460 = system: NCI-H460
HOP-62 = system: HOP-62
SK-MEL-28 = system: SK-MEL-28
RXF 393 = system: RXF 393
SR = system: SR
OVCAR-3 = system: OVCAR-3
NCI/ADR-RES = system: NCI/ADR-RES
PC-3 = system: PC-3
HL-60 = system: HL-60
UO-31 = system: UO-31
CAKI-1 = system: CAKI-1
MDA-N = system: MDA-N

Measured: GI50

CC(=O)C1=C(C)N(c2ccc(C)cc2)C2(O)C=CC(=O)C3C(=O)N(c4ccccc4)C(=O)C132 (stereo not drawn)
inactive: A498 20.2 µM | MDA-MB-435 36.3 µM | HCC 2998 22.5 µM | KM12 21.9 µM | Hs-578T 29.7 µM | NCI-H226 17.1 µM | COLO 205 23.3 µM | SF-539 24.4 µM | NCI-H460 29.4 µM | HOP-62 25.9 µM | SK-MEL-28 19.5 µM | RXF 393 20.3 µM | SR 2.94 µM | OVCAR-3 22.3 µM | NCI/ADR-RES 54.2 µM | PC-3 22.1 µM | HL-60 2.47 µM | UO-31 11.2 µM | CAKI-1 18.6 µM

Cc1cc(S(=O)(=O)Nc2nc3cscc3c(=O)n2N)c(S)cc1Cl
inactive: MDA-MB-435 56 µM | HCC 2998 47.5 µM | KM12 39.5 µM | MDA-N 51.4 µM | NCI-H226 8.15 µM | COLO 205 > 100 µM | SF-539 34.7 µM | NCI-H460 28 µM | HOP-62 49.3 µM | SK-MEL-28 73.3 µM | OVCAR-3 45 µM | NCI/ADR-RES 26.3 µM | PC-3 48.8 µM | HL-60 > 100 µM | CAKI-1 > 100 µM

Cc1cc2nc3n(c2cc1C)C(c1c(F)cccc1F)SC3 (stereo not drawn)
inactive: MDA-MB-435 14.2 µM | HCC 2998 21.2 µM | KM12 > 10 µM | Hs-578T 15.4 µM | NCI-H226 10.5 µM | COLO 205 20.7 µM | SF-539 19.9 µM | NCI-H460 18.1 µM | HOP-62 23.9 µM | SK-MEL-28 19.1 µM | RXF 393 20.8 µM | SR 12.7 µM | OVCAR-3 35.3 µM | NCI/ADR-RES 16.8 µM | PC-3 17.7 µM | UO-31 > 10 µM | CAKI-1 17.3 µM

CC1(C)OC(CCC#N)CN1C(=O)OCc1ccccc1 (stereo not drawn)
inactive: A498 > 100 µM | MDA-MB-435 > 100 µM | HCC 2998 > 100 µM | KM12 28.9 µM | MDA-N > 100 µM | NCI-H226 23.6 µM | COLO 205 > 100 µM | SF-539 > 100 µM | NCI-H460 > 100 µM | SK-MEL-28 > 100 µM | RXF 393 > 100 µM | SR > 100 µM | OVCAR-3 > 100 µM | NCI/ADR-RES > 100 µM | PC-3 > 100 µM | HL-60 > 100 µM | UO-31 > 100 µM | CAKI-1 > 100 µM

CC1CC(C)C(C(O)CC2CC(=O)N(c3ccccc3)C(=O)C2)C(O)C1 (stereo not drawn)
inactive: A498 > 100 µM | HCC 2998 > 100 µM | KM12 > 100 µM | NCI-H226 > 100 µM | COLO 205 > 100 µM | SF-539 > 100 µM | NCI-H460 > 100 µM | HOP-62 > 100 µM | SK-MEL-28 > 100 µM | RXF 393 > 100 µM | SR > 100 µM | OVCAR-3 > 100 µM | HL-60 > 100 µM | UO-31 > 100 µM | CAKI-1 > 100 µM

CCOC(=N)CC(=O)Nc1ccccc1CC
inactive: A498 > 100 µM | HCC 2998 98.9 µM | KM12 > 100 µM | NCI-H226 > 100 µM | COLO 205 > 100 µM | SF-539 > 100 µM | NCI-H460 > 100 µM | HOP-62 > 100 µM | SK-MEL-28 > 100 µM | RXF 393 > 100 µM | SR > 100 µM | OVCAR-3 > 100 µM | HL-60 > 100 µM | UO-31 > 100 µM | CAKI-1 > 100 µM

COc1ccc(C(=O)c2[nH]c(Nc3cc(C)ccn3)c(C(=S)Nc3ccccc3)c2N)cc1
inactive: A498 15.9 µM | MDA-MB-435 19.4 µM | HCC 2998 17.1 µM | KM12 13.3 µM | MDA-N 15.3 µM | NCI-H226 17.1 µM | COLO 205 19.4 µM | SF-539 18.3 µM | NCI-H460 6.04 µM | HOP-62 24.7 µM | SK-MEL-28 17 µM | RXF 393 16.9 µM | SR 15.2 µM | OVCAR-3 41.6 µM | NCI/ADR-RES 3.49 µM | PC-3 21.2 µM | HL-60 24.3 µM | UO-31 21.8 µM | CAKI-1 36.6 µM

CC(C)c1cc(OCC(O)CO)cc(C(C)C)c1 (stereo not drawn)
inactive: A498 > 100 µM | HCC 2998 > 100 µM | KM12 > 100 µM | NCI-H226 > 100 µM | COLO 205 > 100 µM | SF-539 > 100 µM | NCI-H460 > 100 µM | HOP-62 > 100 µM | SK-MEL-28 > 100 µM | RXF 393 > 100 µM | SR > 100 µM | OVCAR-3 > 100 µM | HL-60 > 100 µM | UO-31 > 100 µM | CAKI-1 > 100 µM
